In ChEMBL document CHEMBL1165930, “The anticancer activity of 3- and 10-bromofascaplysins is mediated by caspase-8, -9, -3-dependent apoptosis” (Bioorg Med Chem, 2010):
Activity calls are given as the source filed them. The calls are words filed in the database; no cut-off is given here.

Tests used:
[1] = test system: HL-60; test: Induction of apoptosis in human HL60 cells assessed as early apoptotic cells at 250 nM after 24 hrs by FITC-conjugated annexin V and propidium iodide staining-based flow cytometry; assay type: functional
[2] = test system: JB6 Cl41; test: Effect on EGF-stimulated proliferation of p38-expressing mouse JB6 Cl41 cells at 125 nM after 22 hrs by MTS assay; assay type: functional, cell-based
[3] = molecular target: Transcription factor Jun (Mus musculus) (UniProt P05627); test: Induction of AP1-mediated transcriptional activity in mouse JB6 Cl41 cells at 125 to 250 nM after 6 hrs by luciferase reporter gene assay relative to control; assay type: cell-based
Chain of Transcription factor Jun (Mus musculus) (P05627 whole entry): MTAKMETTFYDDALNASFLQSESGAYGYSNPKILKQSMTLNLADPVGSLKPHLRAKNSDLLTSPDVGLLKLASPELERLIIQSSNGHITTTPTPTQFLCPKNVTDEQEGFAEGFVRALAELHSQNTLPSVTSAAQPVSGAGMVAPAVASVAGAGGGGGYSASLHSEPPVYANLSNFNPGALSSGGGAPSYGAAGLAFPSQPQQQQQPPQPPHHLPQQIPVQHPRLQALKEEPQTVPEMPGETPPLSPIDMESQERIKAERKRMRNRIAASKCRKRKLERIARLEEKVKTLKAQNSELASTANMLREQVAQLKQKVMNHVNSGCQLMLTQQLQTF

[4] = molecular target: Cellular tumor antigen p53 (Mus musculus) (UniProt P02340); test: Inhibition of p53-mediated transcriptional activity in mouse JB6 Cl41 cells at 125 to 250 nM after 24 hrs by luciferase reporter gene assay relative to control; assay type: cell-based
Chain of Cellular tumor antigen p53 (Mus musculus) (P02340 whole entry): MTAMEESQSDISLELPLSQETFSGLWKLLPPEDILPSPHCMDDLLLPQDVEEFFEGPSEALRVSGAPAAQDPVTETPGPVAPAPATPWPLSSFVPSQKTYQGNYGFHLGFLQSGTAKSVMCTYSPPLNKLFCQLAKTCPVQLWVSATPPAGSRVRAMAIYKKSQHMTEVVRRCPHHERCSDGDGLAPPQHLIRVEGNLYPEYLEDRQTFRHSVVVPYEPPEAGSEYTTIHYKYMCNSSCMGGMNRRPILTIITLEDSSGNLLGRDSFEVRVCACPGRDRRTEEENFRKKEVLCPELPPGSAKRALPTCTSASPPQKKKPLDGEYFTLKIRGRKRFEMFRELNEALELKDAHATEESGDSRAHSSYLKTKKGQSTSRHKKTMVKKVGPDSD

[5] = test system: THP-1; test: Selectivity ratio of INCC50 for human THP1 cells to IC50 for human THP1 cells; assay type: functional
[6] = Effect on EGF-stimulated proliferation of ERK2-expressing mouse JB6 Cl41 cells assessed as cell death at 250 nM after 22 hrs by MTS assay; assay type: functional
[7] = test system: THP-1; test: Cytotoxicity against human THP1 cells after 22 hrs by MTS assay; assay type: functional, cell-based; conditions: THP-1, 22 h
[8] = test system: THP-1; test: Induction of apoptosis in human THP1 cells assessed as non-viable necrotic cells at 1000 nM after 24 hrs by FITC-conjugated annexin V and propidium iodide staining-based flow cytometry; assay type: functional
[9] = test system: HL-60; test: Induction of apoptosis in human HL60 cells assessed as decrease in Bid protein level at 500 nM after 24 hrs by Western blot analysis; assay type: functional, cell-based
[10] = test system: HL-60; test: Cytotoxicity against human HL60 cells after 22 hrs by MTS assay; assay type: functional, cell-based; conditions: HL-60, 22 h
[11] = Inhibition of EGF-stimulated viability of mouse JB6 Cl41 cells after 22 hrs by MTS assay; assay type: functional, cell-based; conditions: JB6 Cl41, 22 h
[12] = test system: HL-60; test: Induction of apoptosis in human HL60 cells assessed as decrease in procaspase-8 level at 250 nM after 24 hrs by Western blot analysis; assay type: functional, cell-based
[13] = test system: HL-60; test: Induction of apoptosis in human HL60 cells assessed as decrease in procaspase-3 level at 500 nM after 24 hrs by Western blot analysis; assay type: functional, cell-based
[14] = test system: JB6 Cl41; test: Effect on EGF-stimulated proliferation of mouse JB6 Cl41 cells at 125 nM after 22 hrs by MTS assay; assay type: functional, cell-based
[15] = test system: THP-1; test: Induction of apoptosis in human THP1 cells assessed as viable cells at 2000 nM after 24 hrs by FITC-conjugated annexin V and propidium iodide staining-based flow cytometry; assay type: functional; conditions: THP-1, 24 h, read-out: Activity
[16] = test system: HL-60; test: Induction of apoptosis in human HL60 cells assessed as decrease in PARP level at 500 nM after 24 hrs by Western blot analysis; assay type: functional, cell-based
[17] = test system: SK-MEL-28; test: Cytotoxicity against human SK-MEL-28 cells after 22 hrs by MTS assay; assay type: functional, cell-based; conditions: SK-MEL-28, 22 h
[18] = molecular target: Transcription factor Jun (Mus musculus) (UniProt P05627); test: Induction of AP1-mediated transcriptional activity in mouse JB6 Cl41 cells at 15 to 500 nM by luciferase reporter gene assay; assay type: cell-based
[19] = molecular target: Cellular tumor antigen p53 (Mus musculus) (UniProt P02340); test: Inhibition of p53-mediated transcriptional activity in mouse JB6 Cl41 cells at 375 to 500 nM after 6 hrs by luciferase reporter gene assay relative to control; assay type: cell-based
[20] = Effect on proliferation of p53-expressing mouse JB6 Cl41 cells assessed as cell viability at 375 to 500 nM after 6 hrs; assay type: functional
[21] = test system: THP-1; test: Induction of apoptosis in human THP1 cells assessed as late apoptotic cells at 1000 nM after 24 hrs by FITC-conjugated annexin V and propidium iodide staining-based flow cytometry; assay type: functional
[22] = test system: HL-60; test: Induction of apoptosis in human HL60 cells assessed as early apoptotic cells at 50 nM after 24 hrs by FITC-conjugated annexin V and propidium iodide staining-based flow cytometry; assay type: functional
[23] = test system: HL-60; test: Induction of apoptosis in human HL60 cells assessed as early apoptotic cells at 500 to 1000 nM after 24 hrs by FITC-conjugated annexin V and propidium iodide staining-based flow cytometry; assay type: functional
[24] = Effect on EGF-stimulated proliferation of JNK1-expressing mouse JB6 Cl41 cells assessed as cell death at 250 nM after 22 hrs by MTS assay; assay type: functional
[25] = test system: THP-1; test: Induction of apoptosis in human THP1 cells assessed as late apoptotic cells at 2000 nM after 24 hrs by FITC-conjugated annexin V and propidium iodide staining-based flow cytometry; assay type: functional
[26] = test system: DLD-1; test: Cytotoxicity against human DLD1 cells after 22 hrs by MTS assay; assay type: functional, cell-based; conditions: DLD-1, 22 h
[27] = test system: THP-1; test: Induction of apoptosis in human THP1 cells assessed as non-viable necrotic cells at 2000 nM after 24 hrs by FITC-conjugated annexin V and propidium iodide staining-based flow cytometry; assay type: functional
[28] = test system: HL-60; test: Induction of apoptosis in human HL60 cells assessed as total apoptotic cells at 50 to 100 nM after 24 hrs by FITC-conjugated annexin V and propidium iodide staining-based flow cytometry; assay type: functional
[29] = test system: HL-60; test: Induction of apoptosis in human HL60 cells assessed as decrease in procaspase-3 level at 250 nM after 24 hrs by Western blot analysis; assay type: functional, cell-based
[30] = test system: HeLa; test: Anticancer activity in human HeLa cells assessed as inhibition of colony formation by anchorage-independent soft agar assay; assay type: functional
[31] = test system: THP-1; test: Induction of apoptosis in human THP1 cells assessed as late apoptotic cells at 500 nM after 24 hrs by FITC-conjugated annexin V and propidium iodide staining-based flow cytometry; assay type: functional
[32] = test system: HL-60; test: Induction of apoptosis in human HL60 cells assessed as decrease in procaspase-9 level at 500 nM after 24 hrs by Western blot analysis; assay type: functional, cell-based

## O=C1c2ccc(Br)cc2-[n+]2ccc3c([nH]c4ccccc43)c21.[Cl-]
[1]
  Activity: 40%
[2]
  Activity: inactive
[3]
  fold change (FC): 2
[4]
  inhibition: 40%
[5]
  Selectivity ratio: 8.7
[6]
  Activity: 100%
[7]
  IC50: 521 nM
[8]
  Activity: 18%
[9]
  inhibition: Active
[10]
  IC50: 549 nM
[11]
  IC50: 284 nM
[12]
  inhibition: Active
[13]
  inhibition: Active
[14]
  Activity: inactive
[15]
  viability at 2 µM: 25.8%
[16]
  inhibition: Active
[17]
  IC50: 785 nM
[18]
  Activity: tde
[19]
  inhibition: 30%
[20]
  Activity: 50%
[21]
  Activity: 23.2%
[22]
  Activity: 5%
[23]
  Activity: 20%
[24]
  Activity: 100%
[25]
  Activity: 25.5%
[26]
  IC50: 243 nM
[27]
  Activity: 23.5%
[28]
  Activity: 20%
[29]
  inhibition: Active
[30]
  INCC50: 108.1 nM
[31]
  Activity: 12.4%
[32]
  inhibition: Active
